Key:
LLC tumors [1] = experiment: Imatinib treatment of WT and Itgam-/- mice bearing LLC tumors; type: in vivo
LLC tumors [2] = experiment: Gemcitabine treatment of WT and Itgam-/- mice with LLC tumors; type: in vivo
Method: Tumor Studies—Subcutaneous tumor studies: 5×10^5 LLC or B16 cells were injected subcutaneously into syngeneic (C57BL/6) 6- to 8-week old WT or Itgam^−/− mice (n=18). Tumors were excised at 7, 14 or 21 days, cryopreserved in OCT, lysed for RNA purification or collagenase-digested for flow cytometric analysis of CD11b+, F4/80+ and Gr1+ expression. Tumor volumes were calculated using the equation (l^2×w)/2. CL66-luc cells (0.5×10^6 cells) were suspended in 50 μL of basement membrane extract Matrigel (BD Pharmingen) in PBS (1:1) and inoculated orthotopically in the fourth mammary fat pad of female Balb/cJ mice. Tumor dimensions were measured every 2 days, and tumor volume was calculated using the equation: V (mm^3)=[…], where length is the longest diameter of the tumor and width is the shorter diameter.

Stat3 = molecular target: T1, Stat3 (Mus musculus, UniProt P42227); experiment: mRNA expression in macrophages incubated with Stat3 inhibitor; type: cell-based, murine
T1 construct: endogenous in cells; host or cells: murine bone marrow derived macrophages (WT and Itgam-/-)
Method: Macrophage Polarization—Bone marrow derived macrophages were polarized with either IFNγ (20 ng/ml, Peprotech) plus LPS (100 ng/ml, Sigma) or LPS alone for 24 h or IL-4 (20 ng/ml, Peprotech) for 24-48 h. In some cases, macrophages were incubated with inhibitors of Stat3 ([…]) or cMyc (10058-F4, Selleck). In other experiments, BMM were treated with LLC tumor conditioned media (TCM) or 100 ng/ml TGF-β (PeproTech) for 6 h to analyze changes in protein and gene expression levels. TCM was obtained by culturing LLC in serum free media for 18 h followed by collecting the supernatant and sterile filtering prior to use. In some experiments TGF-β signaling was inhibited using SB5253324 added 30 min prior and during the 6 h stimulation. Total RNA was harvested from macrophages using the RNeasy Mini Kit (Qiagen) according to the manufacturer's instructions. Secreted protein was measured in culture supernatants by ELISA assays.
Analysis of Gene Expression—Total RNA was isolated from cells using RNeasy Mini Kit (Qiagen). cDNA was prepared using 1 μg RNA with the qScript cDNA Synthesis Kit (Quanta Biosciences) or the SuperScript III First-Strand Synthesis Kit (Invitrogen). […]

T1 sequence (P42227 whole entry): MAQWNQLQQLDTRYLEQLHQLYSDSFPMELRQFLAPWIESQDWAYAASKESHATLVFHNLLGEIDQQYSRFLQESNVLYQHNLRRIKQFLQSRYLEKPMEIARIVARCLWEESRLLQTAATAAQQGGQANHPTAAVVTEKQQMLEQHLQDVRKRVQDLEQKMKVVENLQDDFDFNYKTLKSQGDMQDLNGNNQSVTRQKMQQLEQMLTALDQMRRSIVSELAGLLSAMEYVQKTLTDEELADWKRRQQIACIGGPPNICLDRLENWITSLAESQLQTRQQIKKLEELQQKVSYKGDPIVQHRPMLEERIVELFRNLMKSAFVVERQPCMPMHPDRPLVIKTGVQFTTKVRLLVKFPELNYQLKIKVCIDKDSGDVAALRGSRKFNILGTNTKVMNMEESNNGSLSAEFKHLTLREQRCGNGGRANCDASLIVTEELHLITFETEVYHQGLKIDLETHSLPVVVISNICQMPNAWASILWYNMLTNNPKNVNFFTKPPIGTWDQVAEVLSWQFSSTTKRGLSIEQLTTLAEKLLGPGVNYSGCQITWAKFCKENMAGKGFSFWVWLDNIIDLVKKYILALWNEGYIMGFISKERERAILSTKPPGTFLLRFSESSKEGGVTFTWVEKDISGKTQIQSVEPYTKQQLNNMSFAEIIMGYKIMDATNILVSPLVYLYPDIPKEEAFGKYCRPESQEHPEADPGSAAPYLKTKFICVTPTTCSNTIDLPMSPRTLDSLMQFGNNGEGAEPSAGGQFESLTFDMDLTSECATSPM

## Cc1ccc(NC(=O)c2ccc(CN3CCN(C)CC3)cc2)cc1Nc1nccc(-c2cccnc2)n1 [Imatinib, imatinib]
LLC tumors [1]
  tumor growth and vascular normalization in Itgam-/- mice: suppressed the enhanced tumor growth and increased vascular normalization observed in Itgam−/− mice

## Nc1ccn([C@@H]2O[C@H](CO)[C@@H](O)C2(F)F)c(=O)n1 [gemcitabine]
LLC tumors [2]
  tumor growth in Itgam-/- mice versus WT mice: suppressed tumor growth more profoundly than gemcitabine treatment of WT mice

## C1=Cc2nc1cc1ccc([nH]1)c(-c1ccccc1)c1nc(cc3ccc([nH]3)c2-c2ccccc2)C=C1 [5,15-DPP]
Stat3
  Il6 expression in Itgam-/- macrophages: did not affect the high levels of Il6 expression
  immune suppressive factor expression in Itgam-/- macrophages: reduced to WT macrophage levels

Reference: patent US11679100B2, “Methods of enhancing immunity” (The Regents of the University of California, priority 2018, dated 2023)
